The values below come from the supplement of paper PMC10307832.

Common to all, as to test: relative viability (nuclei count vs DMSO), 5 days (fraction); higher = more cells survive
Compound in experiment [1]: CC1=CC=C(C=C1)C(=O)CN2C3=C(CCCC3)SC2=N [Pifithrin_alpha] + Cc1nc(Nc2ncc(C(=O)Nc3c(C)cccc3Cl)s2)cc(N2CCN(CCO)CC2)n1 [Dasatinib] (partner 0.075 µM)
A digest of the protocol: (§1)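 Dosing by pin tool came one day after lung cancer cell lines were seeded in 1536-well plates, using either one drug or a fixed anchor-drug dose plus five library-drug doses (not always all listed) in √10 steps. After 5 days, nuclei were counted on 4× images. Relative viability is treated-well nuclei count divided by vehicle-well nuclei count, and values are medians of duplicate plates.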

Compound in the experiment “Axitinib + Palbociclib”: CNC(=O)c1ccccc1Sc1ccc2c(/C=C/c3ccccn3)n[nH]c2c1 [Axitinib] + CC(=O)c1c(C)c2cnc(Nc3ccc(N4CCNCC4)cn3)nc2n(C2CCCC2)c1=O [Palbociclib] (partner 0.5 µM)
A digest of the protocol: as §1

Compound in the experiment “Axitinib + Navitoclax”: CNC(=O)c1ccccc1Sc1ccc2c(/C=C/c3ccccn3)n[nH]c2c1 [Axitinib] + CC1(C)CCC(c2ccc(Cl)cc2)=C(CN2CCN(c3ccc(C(=O)NS(=O)(=O)c4ccc(N[C@H](CCN5CCOCC5)CSc5ccccc5)c(S(=O)(=O)C(F)(F)F)c4)cc3)CC2)C1 [Navitoclax] (partner 0.5 µM)
A digest of the protocol: as §1

Compound in the experiment “Bemcentinib + AZD7762”: Nc1nc(Nc2ccc3c(c2)CC[C@@H](N2CCCC2)CC3)nn1-c1cc2c(nn1)-c1ccccc1CCC2 [Bemcentinib] + NC(=O)Nc1cc(-c2cccc(F)c2)sc1C(=O)N[C@H]1CCCNC1 [AZD7762] (partner 0.2 µM)
A digest of the protocol: as §1

Turning to HARA, the relative viability in experiment [1] (first compound 3.162 µM) is 0.256; in experiment [1] (first compound 10 µM), 0.257; in experiment [1] (first compound 100 µM) it was 0.268; in the experiment with Axitinib + Palbociclib (first compound 0.005 µM), 0.241; with Axitinib + Palbociclib (first compound 0.01581 µM), 0.334; with Axitinib + Palbociclib (first compound 0.05 µM) it was 0.216. For the same cell line, the relative viability in the experiment with Axitinib + Palbociclib (first compound 0.1581 µM) was 0.221; with Axitinib + Palbociclib (first compound 0.5 µM), 0.247; with Axitinib + Navitoclax (first compound 0.005 µM), 0.979; in the experiment with Axitinib + Navitoclax (first compound 0.01581 µM), 1.08; with Axitinib + Navitoclax (first compound 0.05 µM), 1.14; with Axitinib + Navitoclax (first compound 0.1581 µM) it was 1.08. In addition, the relative viability in the experiment with Axitinib + Navitoclax (first compound 0.5 µM) came out at 1.19; with Bemcentinib + AZD7762 (first compound 0.04 µM), 0.326; with Bemcentinib + AZD7762 (first compound 0.1265 µM), 0.26; in the experiment with Bemcentinib + AZD7762 (first compound 0.4 µM) it was 0.345; with Bemcentinib + AZD7762 (first compound 1.265 µM) it was 0.185; with Bemcentinib + AZD7762 (first compound 4 µM), 0.258.

As to HCC-15, the relative viability came out at 0.634 in experiment [1] (first compound 1 µM); 0.61 in experiment [1] (first compound 3.162 µM); 0.485 in experiment [1] (first compound 10 µM); 0.275 in experiment [1] (first compound 31.62 µM); 0.264 in experiment [1] (first compound 100 µM); 0.764 with Axitinib + Palbociclib (first compound 0.005 µM). Further, the relative viability was determined as 0.766 with Axitinib + Palbociclib (first compound 0.01581 µM); 0.749 with Axitinib + Palbociclib (first compound 0.05 µM); 0.703 in the experiment with Axitinib + Palbociclib (first compound 0.1581 µM); 0.65 with Axitinib + Palbociclib (first compound 0.5 µM); 0.763 with Axitinib + Navitoclax (first compound 0.005 µM); 0.699 with Axitinib + Navitoclax (first compound 0.01581 µM). For the same cell line, the relative viability with Axitinib + Navitoclax (first compound 0.05 µM) came to 0.727; with Axitinib + Navitoclax (first compound 0.1581 µM) it was 0.706; with Axitinib + Navitoclax (first compound 0.5 µM), 0.78; with Bemcentinib + AZD7762 (first compound 0.04 µM), 1.22; in the experiment with Bemcentinib + AZD7762 (first compound 0.1265 µM), 1.4; with Bemcentinib + AZD7762 (first compound 0.4 µM) it was 1.19. The relative viability is 1.26 with Bemcentinib + AZD7762 (first compound 1.265 µM) and 1.38 with Bemcentinib + AZD7762 (first compound 4 µM).

As to HCC-44, the relative viability with Axitinib + Palbociclib (first compound 0.005 µM) turned out to be 0.946; in the experiment with Axitinib + Palbociclib (first compound 0.01581 µM), 0.967; with Axitinib + Palbociclib (first compound 0.05 µM) it was 0.988; with Axitinib + Palbociclib (first compound 0.1581 µM), 0.96; in the experiment with Axitinib + Palbociclib (first compound 0.5 µM) it was 1.04; with Axitinib + Navitoclax (first compound 0.005 µM), 1.04. Also, the relative viability with Axitinib + Navitoclax (first compound 0.01581 µM) was 1.06; with Axitinib + Navitoclax (first compound 0.05 µM), 0.99; with Axitinib + Navitoclax (first compound 0.1581 µM), 0.939; with Axitinib + Navitoclax (first compound 0.5 µM), 1.12; in the experiment with Bemcentinib + AZD7762 (first compound 0.04 µM) it was 1.07; with Bemcentinib + AZD7762 (first compound 0.1265 µM), 1.05. The values for the relative viability with Bemcentinib + AZD7762 (first compound 0.4 µM), with Bemcentinib + AZD7762 (first compound 1.265 µM) and with Bemcentinib + AZD7762 (first compound 4 µM) were 1.01, 1.08 and 1.04, respectively.

Regarding HCC-78, the relative viability is 0.259 in experiment [1] (first compound 1 µM); 0.354 in experiment [1] (first compound 3.162 µM); 0.336 in experiment [1] (first compound 10 µM); 0.417 in experiment [1] (first compound 31.62 µM); 0.455 in experiment [1] (first compound 100 µM); 0.504 with Axitinib + Palbociclib (first compound 0.005 µM). Besides, the relative viability was found to be 0.408 with Axitinib + Palbociclib (first compound 0.01581 µM); 0.469 with Axitinib + Palbociclib (first compound 0.05 µM); 0.5 with Axitinib + Palbociclib (first compound 0.1581 µM); 0.449 in the experiment with Axitinib + Palbociclib (first compound 0.5 µM); 0.873 with Axitinib + Navitoclax (first compound 0.005 µM); 0.842 with Axitinib + Navitoclax (first compound 0.01581 µM). Moreover, the relative viability with Axitinib + Navitoclax (first compound 0.05 µM) amounted to 0.727; with Axitinib + Navitoclax (first compound 0.1581 µM), 0.754; with Axitinib + Navitoclax (first compound 0.5 µM), 0.737; with Bemcentinib + AZD7762 (first compound 0.04 µM) it was 0.633; with Bemcentinib + AZD7762 (first compound 0.1265 µM), 0.717; with Bemcentinib + AZD7762 (first compound 0.4 µM), 0.556. Moreover, the relative viability with Bemcentinib + AZD7762 (first compound 1.265 µM) is 0.672; with Bemcentinib + AZD7762 (first compound 4 µM), 0.614.
